Results from paper PMC10600247, “Impact of C- and N-terminal protection on the stability, metal chelation and antimicrobial properties of calcitermin” (Scientific Reports, 2023).
Residues, ends and D or L forms follow the SMILES beside them.

Key:
C. albicans (ATCC 10231) = assay: In vitro antifungal CFU assay; format: cell-based, Candida albicans; details: pH 5.4; for mean CFU number ± S.D.: per 0.1 mL
Procedure, shortened: (§1)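 Peptides (final 0.128, 0.064, 0.032 mg/mL), alone or with ZnCl2 or CuCl2 at M:L 0.9:1, were incubated with 10^3 CFU/well in PBS pH 5.4 plus 1.5% TSB at 37 °C with slow rocking for 3 and 24 h. Aliquots were plated on TSA and CFU counted after 24 h; triplicate.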

E. coli (ATCC 25922) = assay: In vitro anti-E. coli CFU assay; format: cell-based, Escherichia coli; details: pH 5.4; for mean CFU number ± S.D.: per 0.1 mL
Procedure, shortened: as §1

in vitro = details: human, pH 7.4
Procedure, shortened: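 Peptides (1·10^–4 M) or their 1:1 metal complexes incubated at 37 °C in pooled human plasma diluted 1:1 with ammonium acetate buffer pH 7.4, with L-phenylalaninol internal standard. Aliquots taken at intervals, quenched with HClO4 and centrifuged; supernatants analysed by C18 reverse-phase HPLC with UV detection at 210 nm.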

[1] = peptide 0.032 mg/mL + CuCl2 (0.9:1), 3 h
[2] = peptide 0.032 mg/mL + CuCl2 (0.9:1), 24 h
[3] = peptide 0.032 mg/mL + ZnCl2 (0.9:1), 3 h
[4] = peptide 0.032 mg/mL + ZnCl2 (0.9:1), 24 h
[5] = peptide 0.064 mg/mL + CuCl2 (0.9:1), 3 h
[6] = peptide 0.064 mg/mL + CuCl2 (0.9:1), 24 h
[7] = peptide 0.064 mg/mL + ZnCl2 (0.9:1), 3 h
[8] = peptide 0.064 mg/mL + ZnCl2 (0.9:1), 24 h
[9] = peptide 0.128 mg/mL + CuCl2 (0.9:1), 3 h
[10] = peptide 0.128 mg/mL + CuCl2 (0.9:1), 24 h
[11] = peptide 0.128 mg/mL + ZnCl2 (0.9:1), 3 h, listed as WT calcitermin
[12] = peptide 0.128 mg/mL + ZnCl2 (0.9:1), 3 h
[13] = peptide 0.128 mg/mL + ZnCl2 (0.9:1), 24 h
[14] = peptide alone 0.032 mg/mL, 24 h
[15] = peptide alone 0.064 mg/mL, 24 h
[16] = peptide alone 0.128 mg/mL, 24 h

With `CC[C@H](C)[C@H](NC(=O)[C@H](C)NC(=O)[C@@H](N)C(C)C)C(=O)N[C@@H](C)C(=O)N[C@@H](CC(C)C)C(=O)N[C@@H](CCCCN)C(=O)N[C@@H](C)C(=O)N[C@@H](C)C(=O)N[C@@H](Cc1c[nH]cn1)C(=O)N[C@@H](Cc1ccc(O)cc1)C(=O)N[C@@H](Cc1c[nH]cn1)C(=O)N[C@H](C(=O)N[C@@H](Cc1c[nH]cn1)C(=O)N[C@@H](CCCCN)C(=O)N[C@@H](CCC(=O)O)C(=O)O)[C@@H](C)O` [WT, VAIALKAAHYHTHKE, reference compound] (H-VAIALKAAHYHTHKE-OH) the “CFU decrease/increase with respect to untreated controls” value (shortened to “CFU decrease/increase”) (C. albicans (ATCC 10231); [1]) was -12%, the “mean CFU number ± S.D.” value (C. albicans (ATCC 10231); [1]) was 74 ± 28 CFU and the “CFU decrease/increase” value (C. albicans (ATCC 10231); [2]) was -0.4%. For the same molecule, the “mean CFU number ± S.D.” value (C. albicans (ATCC 10231); [2]) was 1,771 ± 309 CFU, the “CFU decrease/increase” value (C. albicans (ATCC 10231); [3]) was -20% and the “mean CFU number ± S.D.” value (C. albicans (ATCC 10231); [3]) was 67 ± 35 CFU. For the same molecule, the “CFU decrease/increase” value (C. albicans (ATCC 10231); [4]) was -31%, the “mean CFU number ± S.D.” value (C. albicans (ATCC 10231); [4]) was 1,235.8 ± 235 CFU and the “CFU decrease/increase” value (C. albicans (ATCC 10231); [5]) was “+1%”. For the same molecule, the “mean CFU number ± S.D.” value (C. albicans (ATCC 10231); [5]) was 85 ± 24 CFU, the “CFU decrease/increase” value (C. albicans (ATCC 10231); [6]) was -16% and the “mean CFU number ± S.D.” value (C. albicans (ATCC 10231); [6]) was 1,489 ± 111 CFU. For the same molecule, the “CFU decrease/increase” value (C. albicans (ATCC 10231); [7]) was -43%, the “mean CFU number ± S.D.” value (C. albicans (ATCC 10231); [7]) was 48.3 ± 22 CFU and the “CFU decrease/increase” value (C. albicans (ATCC 10231); [8]) was -58%. For the same molecule, the “mean CFU number ± S.D.” value (C. albicans (ATCC 10231); [8]) was 754.3 ± 323 CFU, the “CFU decrease/increase” value (C. albicans (ATCC 10231); [9]) was -35% and the “mean CFU number ± S.D.” value (C. albicans (ATCC 10231); [9]) was 55 ± 11 CFU. The “CFU decrease/increase” value (C. albicans (ATCC 10231); [10]) was -0.6%, the “mean CFU number ± S.D.” value (C. albicans (ATCC 10231); [10]) was 1,790 ± 393 CFU and the “CFU decrease/increase” value (C. albicans (ATCC 10231); [11]) was -49%. For the same molecule, the “mean CFU number ± S.D.” value (C. albicans (ATCC 10231); [12]) was 42.7 ± 11 CFU, the “CFU decrease/increase” value (C. albicans (ATCC 10231); peptide 0.128 mg/mL + ZnCl2 (0.9:1), 24 h, listed as WT calcitermin) was -96% and the “mean CFU number ± S.D.” value (C. albicans (ATCC 10231); [13]) was 62.8 ± 33 CFU. For the same molecule, the “CFU decrease/increase” value (C. albicans (ATCC 10231); peptide alone 0.032 mg/mL, 3 h, listed as WT calcitermin) was -67%, the “mean CFU number ± S.D.” value (C. albicans (ATCC 10231); peptide alone 0.032 mg/mL, 3 h) was 28 ± 15 CFU and the “CFU decrease/increase” value (C. albicans (ATCC 10231); [14]) was -24%. For the same molecule, the “mean CFU number ± S.D.” value (C. albicans (ATCC 10231); [14]) was 1,348± 698 CFU, the “CFU decrease/increase” value (C. albicans (ATCC 10231); peptide alone 0.064 mg/mL, 3 h, listed as WT calcitermin) was -67% and the “mean CFU number ± S.D.” value (C. albicans (ATCC 10231); peptide alone 0.064 mg/mL, 3 h) was 28 ± 15 CFU. The “CFU decrease/increase” value (C. albicans (ATCC 10231); [15]) was -33%, the “mean CFU number ± S.D.” value (C. albicans (ATCC 10231); [15]) was 1,289 ± 495 CFU and the “CFU decrease/increase” value (C. albicans (ATCC 10231); peptide alone 0.128 mg/mL, 3 h, listed as WT calcitermin) was -73%. The “mean CFU number ± S.D.” value (C. albicans (ATCC 10231); peptide alone 0.128 mg/mL, 3 h) was 22.4 ± 15 CFU, the “CFU decrease/increase” value (C. albicans (ATCC 10231); [16]) was -41% and the “mean CFU number ± S.D.” value (C. albicans (ATCC 10231); [16]) was 1,052 ± 531 CFU. The “CFU decrease/increase” value (E. coli (ATCC 25922); peptide 0.032 mg/mL + CuCl2 (0.9:1), 3 h, listed as WT calcitermin) was -38%, the “mean CFU number ± S.D.” value (E. coli (ATCC 25922); [1]) was 505 ± 26 CFU and the “CFU decrease/increase” value (E. coli (ATCC 25922); [2]) was -21%. For the same molecule, the “mean CFU number ± S.D.” value (E. coli (ATCC 25922); [2]) was 191 ± 23 CFU, the “CFU decrease/increase” value (E. coli (ATCC 25922); peptide 0.032 mg/mL + ZnCl2 (0.9:1), 3 h, listed as WT calcitermin) was -38% and the “mean CFU number ± S.D.” value (E. coli (ATCC 25922); [3]) was 499 ± 104 CFU. The “CFU decrease/increase” value (E. coli (ATCC 25922); [4]) was -7%, the “mean CFU number ± S.D.” value (E. coli (ATCC 25922); [4]) was 224 ± 8 CFU and the “CFU decrease/increase” value (E. coli (ATCC 25922); peptide 0.064 mg/mL + CuCl2 (0.9:1), 3 h, listed as WT calcitermin) was -56%. For the same molecule, the “mean CFU number ± S.D.” value (E. coli (ATCC 25922); [5]) was 360 ± 97 CFU, the “CFU decrease/increase” value (E. coli (ATCC 25922); [6]) was -11% and the “mean CFU number ± S.D.” value (E. coli (ATCC 25922); [6]) was 215 ± 17 CFU. For the same molecule, the “CFU decrease/increase” value (E. coli (ATCC 25922); peptide 0.064 mg/mL + ZnCl2 (0.9:1), 3 h, listed as WT calcitermin) was -55%, the “mean CFU number ± S.D.” value (E. coli (ATCC 25922); [7]) was 368 ± 18 CFU and the “CFU decrease/increase” value (E. coli (ATCC 25922); [8]) was “+3%”. For the same molecule, the “mean CFU number ± S.D.” value (E. coli (ATCC 25922); [8]) was 249 ± 9 CFU, the “CFU decrease/increase” value (E. coli (ATCC 25922); peptide 0.128 mg/mL + CuCl2 (0.9:1), 3 h, listed as WT calcitermin) was -91.1% and the “mean CFU number ± S.D.” value (E. coli (ATCC 25922); [9]) was 72 ± 44 CFU. For the same molecule, the “CFU decrease/increase” value (E. coli (ATCC 25922); peptide 0.128 mg/mL + CuCl2 (0.9:1), 24 h, listed as WT calcitermin) was -82%, the “mean CFU number ± S.D.” value (E. coli (ATCC 25922); [10]) was 42 ± 12 CFU and the “CFU decrease/increase” value (E. coli (ATCC 25922); [11]) was -91%. For the same molecule, the “mean CFU number ± S.D.” value (E. coli (ATCC 25922); [12]) was 74 ± 17 CFU, the “CFU decrease/increase” value (E. coli (ATCC 25922); [13]) was -8% and the “mean CFU number ± S.D.” value (E. coli (ATCC 25922); [13]) was 222 ± 16 CFU. The “CFU decrease/increase” value (E. coli (ATCC 25922); peptide alone 0.032 mg/mL, 3 h) was -12%, the “mean CFU number ± S.D.” value (E. coli (ATCC 25922); peptide alone 0.032 mg/mL, 3 h) was 718 ± 138 CFU and the “CFU decrease/increase” value (E. coli (ATCC 25922); [14]) was -7%. For the same molecule, the “mean CFU number ± S.D.” value (E. coli (ATCC 25922); [14]) was 224 ± 21 CFU, the “CFU decrease/increase” value (E. coli (ATCC 25922); peptide alone 0.064 mg/mL, 3 h) was -19% and the “mean CFU number ± S.D.” value (E. coli (ATCC 25922); peptide alone 0.064 mg/mL, 3 h) was 659 ± 139 CFU. The “CFU decrease/increase” value (E. coli (ATCC 25922); [15]) was “+14%”, the “mean CFU number ± S.D.” value (E. coli (ATCC 25922); [15]) was 275 ± 16 CFU and the “CFU decrease/increase” value (E. coli (ATCC 25922); peptide alone 0.128 mg/mL, 3 h) was “+42%”. For the same molecule, the “mean CFU number ± S.D.” value (E. coli (ATCC 25922); peptide alone 0.128 mg/mL, 3 h) was 1155 ± 270 CFU, the “CFU decrease/increase” value (E. coli (ATCC 25922); [16]) was -3% and the “mean CFU number ± S.D.” value (E. coli (ATCC 25922); [16]) was 233 ± 10 CFU. For the same molecule, the half-life (in vitro) was 18 ± 3 min.
